What was measured:
[1] = most commonly represented sizes of crystals (photographs of the crystals); assay type: physicochemical
Source text: The auxiliary substance in the fine-crystalline mixtures was Avicel®.

[2] = release rate of the active ingredient from capsules and tablets (European Pharmacopoeia, chapter 2.9.3.); assay type: physicochemical; conditions: tablets of recipe C2 composition with fine-crystalline mixture of the drug and microcrystalline cellulose, direct pressing (FIG. 5 and 6)
Experimental: The release rate of the active ingredient from the capsules prepared by the process described above, and for comparison also from the tablets, was tested by the method of the European Pharmacopoeia for testing solid pharmaceutical forms (chapter 2.9.3.). The medium used was phosphate buffer having pH 7.2.

[3] = racemic mixture administered to a human; cited from earlier work

CC(C)Cc1ccc([C@H](C)C(=O)O)cc1 [coarse-crystalline S(+)-ibuprofen, S(+)-2-(4-isobutylphenyl)-propionic acid]
lengthwise size of the stick-form crystals ([1]; starting material (photograph FIG. 7)): about 200 micrometers
length of crystals ([1]; starting material, no solvent): 250 μm
width of crystals ([1]; starting material, no solvent): 65 μm

CS(=O)(=O)Nc1ccc([N+](=O)[O-])cc1Oc1ccccc1 [nimesulide, N-(4-nitro-2-phenoxyphenyl)-methanesulphonamide]
release of the active ingredient from the tablet [2]: very fast release

CN1C(C(=O)Nc2ccccn2)=C(O)c2ccccc2S1(=O)=O [piroxicam, 4-hydroxy-2-methyl-3-[(2-pyridyl)aminocarbonyl]-2H-1,2-benzothiazin-1,1-dioxide]
release of the active ingredient from the tablet [2]: very fast release

CC(C)Cc1ccc([C@@H](C)C(=O)O)cc1 [R(−)-ibuprofen, R(−)-2-(4-isobutylphenyl)-propionic acid]
conversion of R(−)-enantiomer to the S(+) form [3]: 50 to 60%

Reference: patent publication US20080233187A1, “Method of Production of Fine-Crystalline Mixture Containing Non-Steroid Anti-Inflammatory Drug, Fine-Crystalline Mixture Obtainable by this Method and Solid Pharmaceutical Composition Containing this Mixture” (priority 2005, published 2008)
